# Target: Voltage-dependent L-type calcium channel subunit alpha-1C (Cavia porcellus)
# Test: Displacement of [3H](+)-PN200-110 binding to calcium channels in guinea pig cardiac membranes.
row,Ki [nM],Structure (SMILES)
1,20,"CCOC(=O)C1=C(C)N=C(C)C(C(=O)OCC)C1c1c(C)noc1CCc1ccc2ccccc2c1 (stereo not drawn) [2,6-Dimethyl-4-[3-methyl-5-(2-naphthalen-2-yl-ethyl)-isoxazol-4-yl]-1,4-dihydro-pyridine-3,5-dicarboxylic acid diethyl ester]"
2,4.1,"CCOC(=O)C1=C(C)N=C(C)C(C(=O)OCC)C1c1c(C)noc1CCc1cccc2ccccc12 (stereo not drawn) [2,6-Dimethyl-4-[3-methyl-5-(2-naphthalen-1-yl-ethyl)-isoxazol-4-yl]-1,4-dihydro-pyridine-3,5-dicarboxylic acid diethyl ester]"
3,91,"CCOC(=O)C1=C(C)N=C(C)C(C(=O)OCC)C1c1c(C)noc1CCc1ccccc1-c1ccccc1 (stereo not drawn) [4-[5-(2-Biphenyl-2-yl-ethyl)-3-methyl-isoxazol-4-yl]-2,6-dimethyl-1,4-dihydro-pyridine-3,5-dicarboxylic acid diethyl ester]"

# Reference: BindingDB's records for doi:10.1021/jm980439q (State University of New York, 1999)
